The test deals with T1, WW2 domain of human AIP4 (Homo sapiens, UniProt Q96J02).
T1 construct: The gene (114 bp) encoding the WW2 domain of human AIP4; Ssp DnaB intein (pTWIN1) (N, cleaved yes); made in house
Description: NMR titration (2D 1H-15N HSQC chemical shift perturbation) of WW2 domain with LMP2A constructs. In kind it is binding.

Ends that are not written are not given here.

T1 sequence (Q96J02 359-391): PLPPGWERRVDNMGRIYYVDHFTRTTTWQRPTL

For PPPPY [PY peptide], the Kd (in general, the concentration at which binding is half-saturated) is 389 µM.
